From US20090209536A1, “AMINOQUINAZOLINE CANNABINOID RECEPTOR MODULATORS FOR TREATMENT OF DISEASE” (KALYPSYS, INC., priority 2007, published 2009) come the findings set out here.

Assay [1] deals with T1, human cannabinoid receptor type 2 (Homo sapiens, UniProt P34972).
T1 construct: expressed in transfected cells; membrane preparation
The experiment in a line: Human CB2 Radioligand Binding Assay. The note with it: membranes from stably transfected CHO CB2 cells. As for the experimental part:
1. Human CB2 Radioligand Binding Assay
This receptor binding filtration assay measures the receptor-ligand interactions of compounds by measuring ability to compete with a radiolabeled control ligand. Reactions were performed in 96 deep-well plate (Costar 3961) with a final volume of 600 ul. Compounds were added to each well either in single point (10 uM final) or dose-response. Compounds were delivered in DMSO or further diluted in incubation buffer to a final assay DMSO concentration of 1%. Incubation buffer (50 mM Tris-HCl pH 7.4, 2.5 mM EGTA, 5 mM MgCl2, 5.0 mg/ml fatty acid free BSA) was added to each well. Following buffer addition, [^3H] CP-55,940 was added. Tritiated CP-55,940 (Perkin Elmer) was used at the Kd determined from prior saturation binding experiments conducted on each lot of membranes. Membrane preparations from stably transfected CHO CB2 cells were added and the reaction was incubated for 90 minutes at 30° C. Unifilter GF/C filtration plates (Perkin Elmer) were pre-wet with 0.05% polyethylenimine. Samples were transferred to Unifilter plates and separation of unbound radioligand was achieved using a vacuum manifold (Millipore). Following thorough washing with 5 ml/well ice-cold wash buffer (50 mM Tris-HCl pH 7.4, 2.5 mM EGTA, 5 mM MgCl2, 0.5 mg/ml fatty acid free BSA), filterplates were dried completely. Betaplate Scint Scintillation cocktail (25 ul, Perkin Elmer) was applied and plates were read using Microbeta Trilux (Wallac). Data analysis was performed in Spotfire. Activity of the positive control (100 nM CP-55,940) was set as 100% efficacy.
Stable recombinant Human CB2-CHO cell membranes were prepared as follows: Chinese Hamster Ovarian (CHO) cells stably expressing human cannabinoid receptor type 2 were grown to 90% confluence in 15×100 mm culture dishes under puromycin selection (5 ug/ml) Cells were harvested from culture flasks using a cell scraper, were washed once with cold phosphate-buffered saline (calcium and magnesium free) and pelleted by centrifugation at 400 g for 5 min at 4° C. Cell pellet was washed once with cold phosphate-buffered saline and centrifuged again at 400×g for 5 min at 4° C. The pellet was suspended in ice-cold lysis buffer (10 mM Tris-HCl, 0.1 mM EDTA, containing […], pH 7.5) and homogenized in a chilled 7 ml glass dounce homogenizer using 50 strokes. The homogenate was centrifuged at 400 g for 15 min at 4° C. The cloudy supernatant was collected and centrifuged at 41000 g for 30 min at 4° C. The resulting pellet was washed with ice-cold sucrose-free lysis buffer and centrifuged again at 41000 g for 30 min at 4° C. The membrane pellet was suspended in sucrose-free storage buffer (10 mm Tris-HCl, 0.1 mM EDTA, pH 7.5) to a concentration of 2-3 mg protein/ml. Aliquots were flash frozen in liquid nitrogen and stored at −80° C. Concentration was determined using Dc protein assay kit (Bio-Rad).

Assay [2] has as its target T2, human cannabinoid receptor type 1 (Homo sapiens, UniProt P21554).
T2 construct: purchased Perkin Elmer RBHCB1M; host or cells: HEK 293 EBNA cells
The experiment in a line: Human CB1 Radioligand Binding Assay (basis of selectivity, CB2 vs. CB1). The note with it: CB1: HEK 293 EBNA cells expressing human CB1; CB2: CHO CB2 membranes. The method, then: 2. Human CB1 Radioligand Binding Assay
The incubation buffer was composed of 50 mM Tris-HCl pH 7.4, 2.5 mM EDTA, 5 mM MgCl2, 5.0 mg/ml fatty acid free BSA and the wash buffer was composed of 50 mM Tris-HCl pH 7.4, 2.5 mM EDTA, 5 mM MgCl2, 0.5 mg/ml fatty acid free BSA.

[3] abbreviates: competition with [3H] CP-55,940, read-out: CB2 Ligand Binding Asssay EC50.

The structures appear in SMILES notation. Like-named read-outs stand apart in the source and are kept apart here.

T2 sequence (P21554 whole entry): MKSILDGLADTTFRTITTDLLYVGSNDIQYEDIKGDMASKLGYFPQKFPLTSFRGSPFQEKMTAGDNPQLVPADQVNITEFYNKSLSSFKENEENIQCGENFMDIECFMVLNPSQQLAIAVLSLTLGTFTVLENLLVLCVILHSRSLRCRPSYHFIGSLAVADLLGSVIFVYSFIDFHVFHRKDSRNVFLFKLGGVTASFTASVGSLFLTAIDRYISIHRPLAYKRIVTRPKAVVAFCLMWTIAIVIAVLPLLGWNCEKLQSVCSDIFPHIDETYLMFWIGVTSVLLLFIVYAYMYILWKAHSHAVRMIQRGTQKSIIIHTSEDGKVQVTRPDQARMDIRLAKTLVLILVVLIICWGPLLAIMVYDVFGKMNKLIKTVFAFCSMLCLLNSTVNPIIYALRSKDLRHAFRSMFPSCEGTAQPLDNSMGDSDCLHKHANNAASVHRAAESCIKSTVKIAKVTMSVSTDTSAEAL
T1 sequence (P34972 whole entry): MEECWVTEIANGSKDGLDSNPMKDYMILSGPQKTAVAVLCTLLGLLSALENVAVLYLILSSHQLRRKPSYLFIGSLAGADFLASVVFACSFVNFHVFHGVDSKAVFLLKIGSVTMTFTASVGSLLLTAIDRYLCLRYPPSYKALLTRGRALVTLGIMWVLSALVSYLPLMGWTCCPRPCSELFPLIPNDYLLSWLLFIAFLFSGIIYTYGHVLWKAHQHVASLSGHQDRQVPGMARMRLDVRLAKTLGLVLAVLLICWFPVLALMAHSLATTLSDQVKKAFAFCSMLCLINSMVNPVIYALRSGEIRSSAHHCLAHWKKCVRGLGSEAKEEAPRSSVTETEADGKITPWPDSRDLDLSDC

Broadly, the EC50 is the concentration that produces a half-maximal response. For `CN(Cc1ccccc1)c1nc(-c2ccc(F)c(F)c2)nc2ccccc12` [Example 17, N-benzyl-2-(3,4-difluorophenyl)-N-methylquinazolin-4-amine], the EC50 in assay [1] (setting [3]) is greater than 1000 nM. In addition, the “Selectivity, CB2 vs. CB1” value in assay [2] is given as “− (− indicates ≦ 10−fold)”.

Regarding `CN1CCN(c2nc(-c3ccc(F)c(F)c3)nc3ccccc23)CC1` [Example 18, 2-(3,4-Difluorophenyl)-4-(4-methylpiperazin-1-yl)quinazoline], the EC50 in assay [1] (setting [3]) was less than 1000 nM. Moreover, the “Selectivity, CB2 vs. CB1” value in assay [2] was “+ (+ indicates > 10−fold)”.

As to `CC(=O)N1CCN(c2nc(-c3ccc(F)c(F)c3)nc3ccccc23)CC1` [Example 19, 1-(4-(2-(3,4-Difluorophenyl)quinazolin-4-yl)piperazin-1-yl)ethanone], the concentration for a half-maximal effect (EC50) in assay [1] (setting [3]) is less than 1000 nM. The “Selectivity, CB2 vs. CB1” value in assay [2] was “+ (+ indicates > 10−fold)”.

Regarding `CC(C)(C)c1ccc(Nc2nc(-c3ccc(F)c(F)c3)nc3ccccc23)cc1` [Example 20, N-(4-tert-Butylphenyl)-2-(3,4-difluorophenyl)quinazolin-4-amine], the EC50 in assay [1] (setting [3]) was less than 1000 nM. Also, the “Selectivity, CB2 vs. CB1” value in assay [2] is on record as “+ (+ indicates > 10−fold)”.

On to `CN(c1ccc(C(C)(C)C)cc1)c1nc(-c2ccc(F)c(F)c2)nc2ccccc12` [Example 21, N-(4-tert-Butylphenyl)-2-(3,4-difluorophenyl)-N-methylquinazolin-4-amine], for which, in assay [1] (setting [3]), the EC50 was greater than 1000 nM. The “Selectivity, CB2 vs. CB1” value in assay [2] is given as “− (− indicates ≦ 10−fold)”.

Regarding `Fc1ccc(-c2nc(N3CCCC3)c3ccccc3n2)c(F)c1` [Example 22, 2-(2,4-Difluorophenyl)-4-(pyrrolidin-1-yl)quinazoline], the concentration giving a half-maximal response (EC50) in assay [1] (setting [3]) was less than 1000 nM. Moreover, the “Selectivity, CB2 vs. CB1” value in assay [2] is “− (− indicates ≦ 10−fold)”.

For `Fc1ccc(-c2nc(N3CCCCC3)c3ccccc3n2)c(F)c1` [Example 23, 2-(2,4-Difluorophenyl)-4-(piperidin-1-yl)quinazoline], the EC50 in assay [1] (setting [3]) is greater than 1000 nM. In addition, the “Selectivity, CB2 vs. CB1” value in assay [2] was “− (− indicates ≦ 10−fold)”.

With `CC(=O)N1CCN(c2nc(-c3ccc(F)cc3F)nc3ccccc23)CC1` [Example 24, 1-(4-(2-(2,4-Difluorophenyl)quinazolin-4-yl)piperazin-1-yl)ethanone], the concentration for a half-maximal effect (EC50) in assay [1] (setting [3]) was less than 1000 nM. Moreover, the “Selectivity, CB2 vs. CB1” value in assay [2] is “− (− indicates ≦ 10−fold)”.

As to `Fc1ccc(-c2nc(N3CCOCC3)c3ccccc3n2)c(F)c1` [Example 25, 4-(2-(2,4-Difluorophenyl)quinazolin-4-yl)morpholine], the half-maximal effective concentration (EC50) in assay [1] (setting [3]) is greater than 1000 nM. In assay [2], the “Selectivity, CB2 vs. CB1” value is reported as “− (− indicates ≦ 10−fold)”.

Consider `CN(Cc1ccccc1)c1nc(-c2ccc(F)cc2F)nc2ccccc12` [Example 26, Benzyl[2-(2,4-difluorophenyl)quinazolin-4-yl]methylamine], for which the EC50 in assay [1] (setting [3]) was greater than 1000 nM. In addition, the “Selectivity, CB2 vs. CB1” value in assay [2] is given as “− (− indicates ≦ 10−fold)”.

As for `CN1CCN(c2nc(-c3ccc(F)cc3F)nc3ccccc23)CC1` [Example 27, 2-(2,4-Difluorophenyl)-4-(4-methylpiperazin-1-yl)quinazoline], the EC50 in assay [1] (setting [3]) was less than 1000 nM. Also, the “Selectivity, CB2 vs. CB1” value in assay [2] is given as “− (− indicates ≦ 10−fold)”.

Turning to `Clc1ccc(-c2nc(N3CCCC3)c3ccccc3n2)c(Cl)c1` [Example 28, 2-(2,4-Dichlorophenyl)-4-pyrrolidin-1-ylquinazoline], the EC50 in assay [1] (setting [3]) is greater than 1000 nM. In addition, in assay [2], the “Selectivity, CB2 vs. CB1” value is listed as “+ (+ indicates > 10−fold)”.

On to `Clc1ccc(-c2nc(N3CCCCC3)c3ccccc3n2)c(Cl)c1` [Example 29, 2-(2,4-Dichlorophenyl)-4-piperidin-1-ylquinazoline], for which, in assay [1] (setting [3]), the EC50 was less than 1000 nM. Moreover, the “Selectivity, CB2 vs. CB1” value in assay [2] is on record as “+ (+ indicates > 10−fold)”.

In the case of `Clc1ccc(-c2nc(NCC3CC3)c3ccccc3n2)c(Cl)c1` [Example 30, Cyclopropylmethyl[2-(2,4-dichlorophenyl)quinazolin-4-yl]amine], the half-maximal effective concentration (EC50) in assay [1] (CB2 Ligand Binding Asssay EC50, competition with [3H] CP-55,940) is greater than 1000 nM. Also, the “Selectivity, CB2 vs. CB1” value in assay [2] is “+ (+ indicates > 10−fold)”.

Turning to `Clc1ccc(-c2nc(NCc3ccccc3)c3ccccc3n2)c(Cl)c1` [Example 31, Benzyl[2-(2,4-dichlorophenyl)quinazolin-4-yl]amine], in assay [1] (setting [3]), the EC50 is greater than 1000 nM. Besides, the “Selectivity, CB2 vs. CB1” value in assay [2] is “− (− indicates ≦ 10−fold)”.

`CN(Cc1ccccc1)c1nc(-c2ccc(Cl)cc2Cl)nc2ccccc12` [Example 32, N-Benzyl-2-(2,4-dichlorophenyl)-N-methylquinazolin-4-amine]: in assay [1] (setting [3]), the EC50 was greater than 1000 nM. Besides, the “Selectivity, CB2 vs. CB1” value in assay [2] was “− (− indicates ≦ 10−fold)”.

`CN1CCN(c2nc(C3CCCCC3)nc3ccccc23)CC1` [Example 33, 2-Cyclohexyl-4-(4-methylpiperazin-1-yl)quinazoline]: the EC50 in assay [1] (setting [3]) is less than 1000 nM. In addition, the “Selectivity, CB2 vs. CB1” value in assay [2] is “− (− indicates ≦ 10−fold)”.

For `c1ccc2c(N3CCCCC3)nc(C3CCCCC3)nc2c1` [Example 34, 2-Cyclohexyl-4-(piperidin-1-yl)quinazolines], the EC50 in assay [1] (setting [3]) was less than 1000 nM. In addition, the “Selectivity, CB2 vs. CB1” value in assay [2] was “− (− indicates ≦ 10−fold)”.

As to `c1ccc2c(N3CCOCC3)nc(C3CCCCC3)nc2c1` [Example 35, 4-(2-Cyclohexylquinazolin-4-yl)morpholine], in assay [1] (setting [3]), the EC50 is less than 1000 nM. Also, in assay [2], the “Selectivity, CB2 vs. CB1” value is “− (− indicates ≦ 10−fold)”.

On to `c1ccc2c(N3CCCC3)nc(C3CCCCC3)nc2c1` [Example 36, 2-Cyclohexyl-4-(pyrrolidin-1-yl)quinazolines], for which the EC50 in assay [1] (setting [3]) was less than 1000 nM. For the same compound, the “Selectivity, CB2 vs. CB1” value in assay [2] is on record as “+ (+ indicates > 10−fold)”.

With `Clc1ccccc1Nc1nc(C2CCCCC2)nc2ccccc12` [Example 37, N-(2-Chlorophenyl)-2-cyclohexylquinazolin-4-amine], in assay [1] (setting [3]), the concentration for a half-maximal effect (EC50) was greater than 1000 nM. Also, in assay [2], the “Selectivity, CB2 vs. CB1” value is on record as “− (− indicates ≦ 10−fold)”.

On to `c1ccc(CNc2nc(C3CCCCC3)nc3ccccc23)cc1` [Example 38, N-Benzyl-2-cyclohexylquinazolin-4-amine], for which the EC50 in assay [1] (setting [3]) is greater than 1000 nM. In assay [2], the “Selectivity, CB2 vs. CB1” value is recorded as “− (− indicates ≦ 10−fold)”.

In the case of `CCCc1nc(N2CCCC2)c2ccccc2n1` [Example 40, 2-Propyl-4-(pyrrolidin-1-yl)quinazoline], the EC50 in assay [1] (setting [3]) was greater than 1000 nM. Besides, the “Selectivity, CB2 vs. CB1” value in assay [2] was “− (− indicates ≦ 10−fold)”.

`CCCc1nc(N2CCN(C)CC2)c2ccccc2n1` [Example 41, 4-(4-Methylpiperazin-1-yl)-2-propylquinazoline]: the EC50 in assay [1] (setting [3]) was greater than 1000 nM. In assay [2], the “Selectivity, CB2 vs. CB1” value is listed as “− (− indicates ≦ 10−fold)”.

In the case of `CN1CCN(c2nc(-c3ccc(C(F)(F)F)cc3)nc3ccccc23)CC1` [Example 42, 4-(4-Methylpiperazin-1-yl)-2-(4-(trifluoromethyl)phenyl)quinazoline], the concentration giving a half-maximal response (EC50) in assay [1] (setting [3]) was less than 1000 nM. Also, the “Selectivity, CB2 vs. CB1” value in assay [2] is “+ (+ indicates > 10−fold)”.

As to `FC(F)(F)c1ccc(-c2nc(N3CCOCC3)c3ccccc3n2)cc1` [Example 43, 4-(2-(4-(Trifluoromethyl)phenyl)quinazolin-4-yl)morpholine], the concentration for a half-maximal effect (EC50) in assay [1] (setting [3]) was less than 1000 nM. In assay [2], the “Selectivity, CB2 vs. CB1” value is reported as “+ (+ indicates > 10−fold)”.

Regarding `FC(F)(F)c1ccc(-c2nc(N3CCCCC3)c3ccccc3n2)cc1` [Example 44, 4-(Piperidin-1-yl)-2-(4-(trifluoromethyl)phenyl)quinazoline], the half-maximal effective concentration (EC50) in assay [1] (setting [3]) was less than 1000 nM. Besides, in assay [2], the “Selectivity, CB2 vs. CB1” value is recorded as “− (− indicates ≦ 10−fold)”.

On to `FC(F)(F)c1ccc(-c2nc(N3CCCC3)c3ccccc3n2)cc1` [Example 45, 4-(Pyrrolidin-1-yl)-2-(4-(trifluoromethyl)phenyl)quinazoline], for which, in assay [1] (setting [3]), the half-maximal effective concentration (EC50) was less than 1000 nM. Moreover, in assay [2], the “Selectivity, CB2 vs. CB1” value is reported as “+ (+ indicates > 10−fold)”.
